# Test results as given in patent publication US20260053794A1, “SOMATOSTATIN RECEPTOR 2 AGONISTS AND USES THEREOF” (Exelixis, Inc., priority 2022, published 2026).
# pEC50: −log10 of the molar value.
# Target: T1, Somatostatin Receptor 2 (SSTR2) (Homo sapiens, UniProt P30874)
# T1 construct: expressed in transfected cells
# Assay: Biochemical Assay for Activation of Somatostatin Receptor 2 (SSTR2), Cisbio HTRF cAMP assay
# Type: cell-based
# Settings: average pEC50; HTRF cAMP assay in stably-transfected cell line expressing SSTR2; cells incubated with compounds for 1-2h
# Protocol: Biochemical Assay for Activation of Somatostatin Receptor 2 (SSTR2)
# Agonistic activation of SSTRs leads to an […] production of intracellular cAMP levels. Cisbio's homogeneous time-resolved fluorescence (HTRF) cAMP assay was used to measure cAMP concentration in an high-throughput format. Increase in intracellular cAMP concentrations was measuring using a stably-transfected cell line expressing SSTR2. Test compounds were dissolved in DMSO. Cells were incubated with compounds for 1-2h, and subsequently competitive binding of cAMP produced due to the activation of SSTR2 by the test compounds was measured using the Cisbio cAMP Gs dynamic assay system (Perkin Elmer, Bedford, MA).
# The average pEC50 was determined for the test compounds.
# T1 sequence (P30874 whole entry, species assumed): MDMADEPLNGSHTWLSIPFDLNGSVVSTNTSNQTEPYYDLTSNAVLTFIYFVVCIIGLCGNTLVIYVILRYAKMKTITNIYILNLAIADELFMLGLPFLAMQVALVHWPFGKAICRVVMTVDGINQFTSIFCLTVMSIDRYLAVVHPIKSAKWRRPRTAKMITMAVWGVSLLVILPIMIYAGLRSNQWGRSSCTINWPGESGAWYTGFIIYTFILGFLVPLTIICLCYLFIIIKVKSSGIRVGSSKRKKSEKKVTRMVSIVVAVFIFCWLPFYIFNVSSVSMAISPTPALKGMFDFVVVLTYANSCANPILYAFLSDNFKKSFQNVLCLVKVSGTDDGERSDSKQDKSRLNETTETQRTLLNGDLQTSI
row,SMILES,pEC50
1,"Cc1cc(F)cc(-c2cnc(Cl)c(-c3nc4cc(F)c(F)cc4[nH]3)c2N2CCC(N)CC2)c1 [Compound 104, 1-(2-chloro-3-(5,6-difluoro-1H-benzo[d]imidazol-2-yl)-5-(3-fluoro-5-methylphenyl)pyridin-4-yl)piperidin-4-amine]",10.10
2,N#Cc1cccc(-c2ccc3ncc(-c4cc(F)cc(F)c4)c(-n4ccc(CN)c4)c3c2)c1O [Compound 144],5.90
3,NC1CCN(c2c(-c3cc(F)cc(F)c3)cnc3c(CO)cc(-c4cc(F)cc(F)c4)cc23)CC1 [Compound 160],10.60
4,NC1CCN(c2c(-c3cc(F)cc(F)c3)cnc3c(C(=O)O)cc(-c4cc(F)cc(F)c4)cc23)CC1 [Compound 149],9.40
5,"Cc1cc(F)cc(-c2cnc3ccc4cc3c2N2CCC(CC2)NCC(N=[N+]=[N-])CCOc2c(C#N)cccc2-4)c1 (stereo not drawn) [Compound 94, 7-azido-23-(3-fluoro-5-methylphenyl)-4-oxa-9-aza-2(4.6)-quinolina-1(1.4)-piperidina-3(1,2)-benzenacyclononaphane-33-carbonitrile]",6.80
6,CC(C)(C)OC(=O)NC1CCN(c2c(-c3cc(F)cc(F)c3)cnc3c(C(=O)O)cc(-c4cc(F)cc(F)c4)cc23)CC1 [Compound 148],< 6.10
7,Cc1cc(F)cc(-c2cnc3ccc(-c4cc(F)cc(C(N)=O)c4)cc3c2O[C@H]2CC[C@@H](N)C2)c1 [Compound 3],8.10
8,Cc1cc(C)cc(-c2cnc3c(c2N2CC[C@@H](N)C2)C(=O)N(c2cc(C)cc(C)c2)CC3)c1 [Compound 115],6.00
9,"N[C@@H]1CC[C@H](Oc2c(-c3cc(F)cc(F)c3)cnc3ccc(-c4cc(F)cc(F)c4)cc23)C1 [Compound 12, (1R,3S)-3-((3,6-bis(3,5-difluorophenyl)quinolin-4-yl)oxy) cyclopentanamine]",7.80
10,"Cc1cc(F)cc(-c2cnc3c(nc(-c4cc(F)cc(C(N)=O)c4)n3C)c2N2CCC(N)CC2)c1 [Compound 35, 3-(7-(4-aminopiperidin-1-yl)-6-(3-fluoro-5-methylphenyl)-3-methyl-3H-imidazo[4,5-b]pyridin-2-yl)-5-fluorobenzamide]",6.80
11,Cc1cc(F)cc(-c2cnc3[nH]c(-c4cccc(Br)c4O)nc3c2N2CCC(N)CC2)c1 [Compound 60],8.50
12,NC1CCN(c2c(-c3cc(F)cc(F)c3)cnc3ccc(C4=CC=CC5(Cl)C(=O)NCCN45)cc23)CC1 (stereo not drawn) [Compound 152],8.10
13,N[C@@H]1CC[C@@H](Oc2c(-c3cc(F)cc(F)c3)cnc3ccc(-c4cc(F)cc(F)c4)cc23)C1 [Compound 14],7.90
14,Cc1cc(F)cc(-c2cnc3ccc(-c4cc(F)cc(C(N)=O)c4)cc3c2OC2CCCC(CN)C2)c1 (stereo not drawn) [Compound 21],7.70
15,"Cc1cc(F)cc(-c2cnc3c(c2N2CCC(N)CC2)-c2nc4cc(F)c(F)cc4n2CC3)c1 [Compound 107, 1-(9,10-difluoro-2-(3-fluoro-5-methylphenyl)-5,6-dihydrobenzo [4,5]imidazo[2,1-f][1,6]naphthyridin-1-yl)piperidin-4-amine]",< 7.10
16,"Cc1cc(F)cc(-c2cnc3ccc4cc3c2N2CCC(CC2)NC[C@H](CO)CCOc2c(C#N)cccc2-4)c1 (single isomer, unassigned) [Compound 91]",8.20
17,C=COc1c(C#N)cccc1-c1ccc2ncc(-c3cc(F)cc(F)c3)c(N3CC[C@H](N)[C@@H](O)C3)c2c1 [Compound 153],8.50
18,Cc1cc(F)cc(-c2cncc(N3Cc4ccccc4C3)c2N2CCC(N)CC2)c1 [Compound 119],10.30
19,"N#Cc1cccc(-c2cc3ncc(-c4cc(F)cc(F)c4)c(N4CCC(N)CC4)c3o2)c1O [Compound 127, 3-(7-(4-aminopiperidin-1-yl)-6-(3,5-difluorophenyl)furo[3,2-b]pyridine-2-yl)-2-hydroxybenzonitrile]",6.60
20,"Cc1cc(F)cc(-c2cnc3ccc4cc3c2N2CCC(CC2)NCCNC(=O)Oc2ccccc2-4)c1 [Compound 87, 23-(3-fluoro-5-methylphenyl)-4-oxa-6,9-diaza-2(4,6)-quinolina-1(1,4)-piperidina-3(1,2)-benzenacyclononaphan-5-one]",9.60
21,NCC1CCCCC1Oc1c(-c2cc(F)cc(F)c2)cnc2ccc(-c3cc(F)cc(F)c3)cc12 (stereo not drawn) [Compound 20],5.40
22,COc1cc(F)cc(-c2cnc3[nH]c(-c4cc(F)cc(C(=O)O)c4)nc3c2N2CC[C@@H](N)[C@H](OC)C2)c1 [Compound 52],< 5.00
23,COc1cc(F)cc(-c2cnc3[nH]c(-c4cccc(Br)c4O)nc3c2N2CCC(N)CC2)c1 [Compound 57],8.00
24,NC(=O)c1cc(F)cc(-c2ccc3ncc(-c4cc(F)cc(F)c4)c(O[C@@H]4CC[C@H](N)C4)c3c2)c1 [Compound 10],8.00
25,COc1cc(F)cc(-c2cnc3[nH]c(-c4ccc5[nH]c(=O)[nH]c5c4)nc3c2N2CCC(N)CC2)c1 [Compound 56],5.80
26,COc1cc(F)cc(-c2cnc3ccc(-c4cc(F)cc(C(N)=O)c4)cc3c2O[C@@H]2CC[C@H](N)C2)c1 [Compound 5],8.50

row,SMILES,pEC50
1,N[C@H]1CCN(c2c(-c3cc(F)cc(F)c3)cnc3c2C(=O)N(c2ccc(F)c(F)c2)CC3)C1 [Compound 114],< 5.00
2,NC1CCN(c2c(-c3cc(F)cc(F)c3)cnc3ccc(C4=CC=CN5CCNC(=O)C45O)cc23)CC1 (stereo not drawn) [Compound 158],6.30
3,NC1CCN(c2c(-c3cc(F)cc(F)c3)cnc3c2C(=O)N(c2ccc(F)c(F)c2)CC3)CC1 [Compound 110],6.80
4,N[C@H]1CC[C@H](Oc2c(-c3cc(F)cc(F)c3)cnc3ccc(-c4cc(F)cc(F)c4)cc23)C1 [Compound 15],7.90
5,N#Cc1cccc(-c2ccc3ncc(-c4cc(F)cc(F)c4)c(-c4ccc(N)cn4)c3c2)c1O [Compound 123],< 5.00
6,COc1cc(F)cc(-c2cnc3cc(-c4ccc5[nH]c(=O)[nH]c5c4)oc3c2N2CCC(N)CC2)c1 [Compound 130],7.00
7,"CN1CCCCNC2CCN(CC2)c2c(-c3cc(F)cc(F)c3)cnc3ccc(cc23)-c2cccc(c2)C1=O [Compound 81, 23-(3,5-difluorophenyl)-5-methyl-5, 10-diaza-2(4, 6)-quinolina-1(1, 4)-piperidina-3(1,3)-benzenacyclodecaphan-4-one]",5.70
8,NC(=O)c1cc(F)cc(-c2cc3ncc(-c4cc(F)cc(F)c4)c(N4CCC(N)CC4)c3o2)c1 [Compound 128],7.00
9,COc1cc(F)cc(-c2cnc3c(nc(-c4ccc5[nH]c(=O)[nH]c5c4)n3C)c2N2CCC(N)CC2)c1 [Compound 32],< 5.00
10,COc1cc(F)cc(-c2cnc3c(nc(-c4cccc(C#N)c4O)n3C)c2N2CCC(N)CC2)c1 [Compound 34],6.30
11,Cn1c(-c2cccc(Br)c2O)nc2c(N3CCC(NC(=O)OC(C)(C)C)CC3)c(-c3cc(F)cc(F)c3)cnc21 [Compound 40],< 5.00
12,Nc1nc(Cl)ccc1C(=O)Nc1cncc(-c2ccccc2)c1N1CCC(N)CC1 [Compound 165],7.90
13,Cc1cc(C)cc(-c2cnc3c(c2N2CC[C@H](N)C2)C(=O)N(c2cc(C)cc(C)c2)CC3)c1 [Compound 116],5.90
14,Cc1cc(F)cc(-c2cnc3ccc(-c4cccc(C#N)c4O)cc3c2N2CCC(=O)CC2)c1 [Compound 163],< 5.00
15,COCOc1c(C#N)cccc1-c1ccc2ncc(-c3cc(F)cc(F)c3)c(-n3ccc([N+](=O)[O-])c3)c2c1 [Compound 143],< 5.00
16,Cc1cc(F)cc(-c2cnc3ccc(-c4cccc(C#N)c4O)cc3c2O[C@@H]2CC[C@H](N)C2)c1 [Compound 9],8.50
17,CC(C)(C)OC(=O)NC1CCN(c2c(-c3cc(F)cc(F)c3)cnc3nc(-c4cccc(Br)c4O)[nH]c23)CC1 [Compound 63],< 5.00
18,N#Cc1cccc2c1OCCOCCNC1CCN(CC1)c1c(-c3cc(F)cc(F)c3)cnc3ccc-2cc13 [Compound 70],9.10
19,"Cc1cc(F)cc(-c2cnc3ccc4cc3c2N2CCC(CC2)NC[C@@H](O)CCOc2c(C#N)cccc2-4)c1 (single isomer, unassigned) [Compound 100]",5.60
20,Cc1cc(F)cc(-c2cnc3ccc(-c4cc(F)cc(C(N)=O)c4)cc3c2O[C@@H]2CC[C@H](N)C2)c1 [Compound 2],9.00
21,CC(N)CCN1CCc2c(-c3cc(F)cc(F)c3)ccc3ncc(-c4cc(F)cc(F)c4)c1c23 (stereo not drawn) [Compound 155],6.20
22,"Cc1cc(F)cc(-c2cnc3ccc4cc3c2N2CCC(CC2)NCC[C@H](N)COc2c(C#N)cccc2-4)c1 (single isomer, unassigned) [Compound 99]",8.10
23,COc1cc(F)cc(-c2cnc3[nH]c(-c4ccc5[nH]c(=O)[nH]c5c4)nc3c2N2CC[C@@H](N)[C@H](OC)C2)c1 [Compound 49],< 5.00
24,"O=C1NCCNC2CCN(CC2)c2c(-c3cc(F)cc(F)c3)cnc3ccc(cc23)-c2cccnc21 [Compound 79, 2^3-(3,5-difluorophenyl)-4,7-diaza-2(6,4)-quinolina-1(3,2)-pyridina-3(1,4)-piperidinacyclooctaphan-8-one]",< 5.00
25,COc1cc(F)cc(-c2cnc3[nH]c(-c4cc(F)cc(C(N)=O)c4)nc3c2N2CCC(N)CC2)c1 [Compound 58],6.30
